# Laboratory results: US8729030B2 (Affymax, Inc., priority 2003, dated 2014)
# Bridges are numbered along the chain shown (N, C = ends). Where no end group is shown, it is not given here. [ ]: non-standard residue; d: D form. 1Nal = N[C@@H](Cc1cccc2ccccc12)C(=O)O; Sar = CNCC(=O)O
# Assays:
# [1] = tested on: human, bone marrow derived CD34+ cells; experiment: C/BFU-e assay (erythroid colony formation); assay type: cell-based; details: Table 2; colonies 90% of maximum relative to EPO control, 14 days
# Source text: EPO-R signaling stimulates the differentiation of bone marrow stem cells into proliferating red blood cell presursors. This assay measures the ability of test peptides to stimulate the proliferation and differentiation of red blood cell precursors from primary human bone marrow pluripotent stem cells.
# For this assay, serial dilutions of test peptide are made in IMDM medium (Gibco) supplemented with 10% FBS (Hyclone). […] The methylcellulose and peptide mixture is then vortexed thoroughly. Aliquots (100,000 cells/mL) of human, bone marrow derived CD34+ cells (Poietics/Cambrex) are thawed. The thawed cells are gently added to 0.1 mL of 1 mg/ml DNAse (Stem Cells) in a 50 mL tube. Next, 40-50 mL IMDM medium is added gently to cells: the medium is added drop by drop along the side of the 50 mL tube for the first 10 mL, and then the remaining volume of medium is slowly dispensed along the side of the tube. The cells are then spun at 900 rpm for 20 min, and the media removed carefully by gentle aspiration. The cells are resuspended in 1 ml of IMDM medium and the cell density per mL is counted on hemacytometer slide (10 μL aliquot of cell suspension on slide, and cell density is the average count×10,000 cells/ml). The cells are then diluted in IMDM medium to a cell density of 15,000 cells/mL. A 100 μL of diluted cells is then added to each 1.5 mL methyl cellulose plus peptide sample (final cell concentration in assay media is 1000 cells/mL), and the mixture is vortexed. Allow the bubbles in the mixture to disappear, and then aspirate 1 mL using blunt-end needle. Add 0.25 mL aspirated mixture from each sample into each of 4 wells of a 24-well plate (Falcon brand). Incubate the plated mixtures at 37° C. under 5% CO2 in a humid incubator for 14 days. Score for the presence of erythroid colonies using a phase microscope (5×-10× objective, final magnification of 100×).
# EPO-R signaling stimulates the differentiation of bone marrow stem cells into proliferating red blood cell precursors. […]
# EPO-R = target: T1, EPO-R (Homo sapiens, UniProt P19235); experiment: Competitive binding assay (AlphaQuest bead proximity, AQ); details: Table 2; competition with biotinylated EPO-R-binding peptide tracer
# T1 construct: made in house; host or cells: Chinese Hamster Ovary cells
# T1 sequence (P19235 25-250 limits assumed): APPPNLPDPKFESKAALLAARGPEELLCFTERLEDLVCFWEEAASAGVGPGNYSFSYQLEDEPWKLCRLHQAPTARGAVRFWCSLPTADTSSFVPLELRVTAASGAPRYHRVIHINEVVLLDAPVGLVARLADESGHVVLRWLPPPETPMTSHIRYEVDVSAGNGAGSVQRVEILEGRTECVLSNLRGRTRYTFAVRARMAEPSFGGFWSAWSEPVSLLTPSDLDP
# Source text: Competitive binding calculations are made using an assay in which a light signal is generated as a function of the proximity of two beads: a streptavidin donor bead bearing a biotinylated EPO-R-binding peptide tracer and an acceptor bead to which is bound EPO-R. Light is generated by non-radiative energy transfer, during which a singlet oxygen is released from a first bead upon illumination, and contact with the released singlet oxygen causes the second bead to emit light. These bead sets are commercially available (Packard). Bead proximity is generated by the binding of the EPO-R-binding peptide tracer to the EPO-R. A test peptide that competes with the EPO-R-binding peptide tracer for binding to EPO-R will prevent this binding, causing a decrease in light emission.
# In more detail the method is as follows: Add 4 μL of serial dilutions of the test EPO-R agonist peptide, or positive or negative controls, to wells of a 384 well plate. Thereafter, add 2 μL/well of receptor/bead cocktail. […]
# Centrifuge 1 min to mix. […] After 18 hours read light emission using an AlphaQuest reader (Packard). […]
# [2] = target: chimeric receptor comprising the extra-cellular portion of the human EPO receptor to the intra-cellular portion of the human GCSF receptor; experiment: Reporter assay (Baf3/EpoR/GCSFR fos/lux luciferase); assay type: cell-based; details: Table 2; Baf3/EpoR/GCSFR fos/lux cells, 4 h
# Source text: This assay is based upon a on a murine pre-B-cell line derived reporter cell, Baf3/EpoR/GCSFR fos/lux. This reporter cell line expresses a chimeric receptor comprising the extra-cellular portion of the human EPO receptor to the intra-cellular portion of the human GCSF receptor. This cell line is further transfected with a fos promoter-driven luciferase reporter gene construct. Activation of this chimeric receptor through addition of erythropoietic agent results in the expression of the luciferase reporter gene, and therefore the production of light upon addition of the luciferase substrate luciferin. Thus, the level of EPO-R activation in such cells may be quantitated via measurement of luciferase activity.
# The Baf3/EpoR/GCSFR fos/lux cells are cultured in DMEM/F12 medium (Gibco) supplemented with 10% fetal bovine serum (FBS; Hyclone), 10% WEHI-3 supernatant (the supernatant from a culture of WEHI-3 cells, ATCC #TIB-68), and penicillin/streptomycin. […] Following a 5-minute incubation, light emission is measured on a Packard Topcount Luminometer (Packard Instrument Co., Downers Grove, Ill.). Light counts are plotted relative to test peptide concentration and analysed using Graph Pad software. The concentration of test peptide that results in a half-maximal emission of light is recorded as the EC50 [See Table 2: Reporter EC50]. […]
EC90 [1],IC50 (EPO-R),EC50 [2],Substance
2.2 nM,0.11 nM,,"peptide dimer of monomers (AcG)GLYACHMGPIT(1-nal)VCQPLR(MeG) (SEQ ID NO: 3) [Peptide II] (Ac-GGLYACHMGPIT[1Nal]VCQPLR[Sar]; disulfide 6-15 (inferred); not fully specified (residue 1); printed as (AcG)GLYACHMGPIT(1-nal)VCQPLR(MeG); also: homodimer, dimer linkage not given here)"
2.7 nM,,0.15 nM,"peptide dimer of monomers (AcG)GLYACHMGPIT(1-nal)VCQPLR(MeG) (SEQ ID NO: 3) [Peptide III] (Ac-GGLYACHMGPIT[1Nal]VCQPLR[Sar]; disulfide 6-15 (inferred); not fully specified (residue 1); printed as (AcG)GLYACHMGPIT(1-nal)VCQPLR(MeG); also: homodimer, dimer linkage not given here)"
